Measured values published in patent US8399466B2, “Composition for regenerative treatment of cartilage disease” (Mitsubishi Tanabe Pharma Corporation, priority 2001, dated 2013).

Legend:
[1] = system: human articular chondrocytes; assay: Increase of intracellular cAMP in human articular chondrocytes (cAMP EIA); format: cell-based; conditions: PGE2 1 μM, 30 minutes, vehicle 0.4
Experimental: Human articular cartilage (articular cartilage of degenerative malum coxae patient) was soaked in phosphate buffer (pH 7.2) and only the cortical layer of the joint portion was scrapped with, a knife into a 50 ml tube containing same buffer. The collected knee joint cortical layer was cut into as small sections as possible on a dish with a razor and transferred to a centrifuge tube.
To the centrifuge tube, phosphate buffer (pH 7.2) containing 1 mg/ml of hyaluronidase (SIGMA: Cat. No. H-3506) was added and shaken at 37° C. for 15 minutes. The precipitates were separated by centrifugation (2,000 rpm, 5 minutes) and added to Hank's balanced salt solution (GIBCO; Cat. No. 15050-065) containing 0.25% trypsin and shaken at 37° C. for 30 minutes.
After separation of precipitates by centrifugation (2,000 rpm, 5 minutes), α-minimum essential medium (GIBCO; Cat. No. 12571-063) containing 0.25% collagenase for cell diffusion (Wako Pure Chemical Industries, Ltd., 034-10533) and 10% fetal calf serum (GIBCO; Cat. No. 10099-141) were added to the precipitates and shaken at 37° C. overnight.
Cartilage fragments were removed using a 40 μm Cell Strainer (FALCON; Cat. No. 2340), and α-minimum essential medium containing 10% fetal calf serum was added to the collagenase-treated cells and centrifuged (1,400 rpm, 10 minutes).
The precipitates were washed three times with α-minimum essential medium containing 10% fetal calf serum and suspended in the same medium to an appropriate volume and seeded into 48-well plates (50,000 cells/well). On the next day, the medium was replaced with α-minimum essential medium containing 10% fetal calf serum. The α-minimum essential medium used contained antibiotics (100 U/ml penicillin G and 100 μg/ml streptomycin sulfate) and an antifungal (0.25 μg/ml amphotericin B) (GIBCO; Cat. No. 15240-062). […]
After 30 minutes cultivation, medium was discarded. […] The residue was dissolved in an assay buffer attached with cAMP EIA system (Amersham Pharmacia Biotech; Cat. No. RPN225) and cAMP concentration was measured with said system.

[2] = system: rabbit articular chondrocytes; assay: Matrix production of rabbit articular chondrocytes in the presence of IL-1; format: cell-based; conditions: 1 × 10^−6 M; IL-1β 1 ng/ml; until day 3; vehicle = 100
Experimental: Four NZW line rabbits (Kitayama Labes., Co Ltd.; male; 4-week-old) were sacrificed with bleeding under ether anesthesia and knee joints of femur side were collected aseptically. Only the cortical layer was scrapped with a surgical knife in phosphate buffer (pH 7.2) containing 0.2% glucose and then placed into a 50 ml tube containing phosphate buffered saline containing 0.2% glucose. The collected knee joint cortical layer was cut into as small sections as possible on a dish with a razor, combined with 50 ml of phosphate buffer (100 mg trypsin, 40 mg EDTA·4 Na; pH 7.2) containing 0.2% glucose, supplied with 10× trypsin-ethylenediamine tetraacetic acid tetra sodium salt (EDTA·4Na: GIBCO; Cat. No. 15400-054) and shaken at 37° C. for 15 minutes.
After shaking, the precipitates were collected by centrifugation (1,400 rpm) and washed twice with 40 ml of phosphate buffer (pH 7.2) with 0.2% glucose.
To the washed precipitates was added 40 ml of α-minimum essential medium (MEM: GIBCO; Cat. No. 12571-063) containing 60 mg of collagenase for cell diffusion (Wako Pure Chemical Industries, Ltd., 034-10533) and antibiotics (200 U/ml penicillin G and 200 μg/ml streptomycin sulfate) (GIBCO; Cat. No. 15140-122), and the mixture was transferred to a 100 ml beaker containing a sterilized stirrer bar.
The incubation was conducted in a CO2 incubator at 37° C. for 30 minutes under stirring with a stirrer bar. Deoxyribonuclease I (Takara Shuzo Co., LTD.; Cat. No. 2210A) was then added at a concentration of 70 U/ml. The cultivation was conducted under the same condition for another 30 minutes. The supernatant of the culture was collected in another vessel and the remaining cartilage slips were then cultured again for about 30 minutes in freshly prepared α-minimum essential medium containing 60 mg of collagenase and 70 U/m1 deoxyribonuclease I.
To the previously collected culture supernatant and the last culture, from which cartilage slips had been removed using a 40 μm Cell Strainer (FALCON; Cat. No. 2340), 10 ml of α-minimum essential medium (MEM: GIBCO; Cat. No. 12571-063) containing 10% fetal calf serum (GIBCO Cat. No. 10099-141) and antibiotics (200 U/ml penicillin G and 200 μg/ml streptomycin sulfate) (GIBCO; Cat. No. 15140-122) was added and centrifuged (1,400 rpm, 10 minutes).
The precipitates were washed twice with α-minimum essential medium containing 10% fetal calf serum and antibiotics, suspended with an appropriate volume of the same medium, and seeded into 48-well plates (20,000 cells/well). […]
After staining, the cells were washed 3 times with 1 ml of phosphate buffer (pH 7.2). Alcian blue which had stained cartilage matrix was dissolved with 0.25 ml of 6 M aqueous guanidine hydrochloride solution and a portion of which was used to determine the absorbance at 620 nm. […]

Structure (SMILES) | cAMP Production (picomol/well) ([1]; 1 × 10^−5) | cAMP Production (picomol/well) ([1]; 1 × 10^−6) | Proteoglycan Production (%) [2] [%]
CCOc1cc2cc(CO)c(CO)c(-c3ccnc(-n4nc(-c5cccnc5)c5ccccc5c4=O)c3)c2cc1OCC [Compound (2)] | 23.2 | 13.8 | 143
COc1ccc(C(=O)Nc2c(Cl)cncc2Cl)cc1OC1CCCC1 [Compound (11)] | 10.6 |  | 121
